Results taken from US9809602B2, “Compounds for treating viral infections” (INSTITUT PASTEUR KOREA, priority 2014, dated 2017).

Test system: genotype 1/2 chimeric cell culture derived HCV (HCVcc)
Test: Genotype 1/2 chimeric HCVcc assay (nano-luciferase, HCV replication)
Format: cell-based
Conditions: Hepatitis C virus
In short: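 Huh-7.5 cells (2400/well) pretreated 2 h with serially diluted compound, then infected with nano-luciferase genotype 1a/2a (JFH-1) chimeric HCVcc. At 72 h post infection, nano-luciferase reported replication and cellular ATP reported cytotoxicity; EC50 and CC50 by non-linear regression.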

| SMILES | EC50 [nM] |
| --- | --- |
| O=C(NCCCN1CCC(N2CCCCC2)CC1)c1cc2ccccc2s1 [Compound 1009] | 1000 to 10000 |
| c1ccc(Oc2ccc(CNCCCN3CCC(N4CCCCC4)CC3)cc2)cc1 [Compound 1046] | 100 to 1000 |
| O=C(NCCCN1CCCC1)c1cc2c(s1)CCCC2 [Compound 1004] | > 10000 |
| O=C(NCCCN1CCN(c2ccccc2)CC1)c1ccc(Oc2ccccc2)cc1 [Compound 1040] | 1000 to 10000 |
| O=C(NCCCN1CCC(N2CCCCC2)CC1)c1ccc(Oc2ccc(F)cc2)cc1 [Compound 1033] | 1000 to 10000 |
| O=C(NCCCN1CCC(N2CCCCC2)CC1)c1ccc2cc[nH]c2c1 [Compound 1008] | > 10000 |
| O=S(=O)(NCCCN1CCC(N2CCCCC2)CC1)c1ccc(Oc2ccc(C(F)(F)F)cc2)cc1 [Compound 1094] | 100 to 1000 |
| O=C(NCCCN1CCC(N2CCCCC2)CC1)c1ccc(-c2ccc(C(F)(F)F)cc2)cc1 [Compound 1019] | 100 to 1000 |
| O=C(NCCCN1CCC(N2CCCCC2)CC1)c1ccc(Oc2ccc(Cl)cc2)cc1 [Compound 1109] | 1000 to 10000 |
| O=S(=O)(NCCCN1CCC(N2CCCCC2)CC1)c1ccc(-c2ccc(OC(F)(F)F)cc2)cc1 [Compound 1092] | 100 to 1000 |
| O=C(NCCCN1CCN(C2CCCCC2)CC1)c1ccc(Oc2ccccc2)cc1 [Compound 1037] | > 10000 |
| O=C(NCCCN1CCC(N2CCCCC2)CC1)c1ccc(-c2ccc(C(F)(F)F)cn2)cc1 [Compound 1100] | 100 to 1000 |
| O=C(NCCCN1CCC(N2CCCCC2)CC1)C1=Cc2sc3c(c2CS1)CCCC3 [Compound 1001] | 100 to 1000 |
| O=C(NCCCCCCN1CCC(N2CCCCC2)CC1)c1ccc(Oc2ccccc2)cc1 [Compound 1088] | 100 to 1000 |
| O=C(CCCN1CCC(N2CCCCC2)CC1)Nc1ccc(-c2ccc(C(F)(F)F)cc2)cc1 [Compound 1086] | 100 to 1000 |
| CN(C)c1ccc(Oc2ccc(C(=O)NCCCN3CCC(N4CCCCC4)CC3)cc2)cc1 [Compound 1110] | 100 to 1000 |

Same assay, conditions: Hepatitis C virus, Huh7.5, 72 h

| SMILES | EC50 [nM] |
| --- | --- |
| CCOC(=O)c1c(NC(=O)NCc2c(C(F)(F)F)sc3c2CCN(CCN(C)C)C3)sc2c1CCCC2 [Compound 316] | < 100 |
| CCN1CCc2c(sc(-n3cccc3)c2CNC(=O)Nc2sc3c(c2-c2nnc(C)o2)CCCC3)C1 [Compound 43] | < 100 |
| CC(C)(C)OC(=O)c1c(NC(=O)NCc2c(-c3cccc(Cl)c3)sc3c2CCNC3)sc2c1CCCC2 [Compound 180] | < 100 |
| CCOC(=O)c1c(NC(=O)NCc2c(-n3cccc3)sc3c2CCNC3)sc2c1CCC2 [Compound 112] | < 100 |
| CCNC(=O)c1c(NC(=O)NCc2c(-n3cccc3)sc3c2CCNC3)sc2c1CCCC2 [Compound 59] | < 100 |
| CC(C)(C)OC(=O)c1c(NC(=O)NCc2c(-c3cnc(Sc4ccccc4)nc3)sc3c2CCNC3)sc2c1CCCC2 [Compound 323] | 100 to 1000 |
| CN1CCc2c(sc(C(F)(F)F)c2CNC(=O)Nc2sc3c(c2C(=O)OC(C)(C)C)CCCCC3)C1 [Compound 281] | < 100 |
| O=C(NCc1c(-n2cccc2)sc2c1CCNC2)Nc1sc2c(c1C(=O)NCC1CCCCC1)CCCC2 [Compound 83] | 1000 to 10000 |
| CC(C)(C)OC(=O)c1c(NC(=O)NCc2c(C(F)(F)F)sc3c2CCNC3)sc2c1CCC2 [Compound 244] | < 100 |
| Cc1sc(NC(=O)NCc2c(C(F)(F)F)sc3c2CCNC3)c(C(=O)OC2CCOC2)c1C (stereo not shown) [Compound 350] | < 100 |
| COC(=O)c1c(NC(=O)NCc2c(-n3cccc3)sc3c2CCNC3)sc2c1CCCC2 [Compound 142] | 100 to 1000 |
| CCOC(=O)c1c(NC(=O)C(=O)NCc2c(-n3cccc3)sc3c2CCN(C(=O)OC(C)(C)C)C3)sc2c1CCCC2 [Compound 85] | > 10000 |
| CCN1CCc2c(sc(-n3cccc3)c2CNC(=O)Nc2cccs2)C1 [Compound 15] | > 10000 |
| CCN1CCc2c(sc(C(F)(F)F)c2CNC(=O)Nc2sc3c(c2C(=O)OC)CCCC3)C1 [Compound 178] | < 100 |
| CCN1CCc2c(sc(-n3cccc3)c2CNC(=O)Nc2sc3c(c2C(=O)OC(C)(C)C)CCCC3)C1 [Compound 14] | < 100 |
| CCOC(=O)c1c(NC(=O)NCc2csc(CN(C)C)c2C)sc2c1CCCC2 [Compound 188] | < 100 |
| Cn1ccc(-c2sc3c(c2CNC(=O)Nc2sc4c(c2C(=O)OC(C)(C)C)CCCC4)CCNC3)c1 [Compound 182] | < 100 |
| CCOC(=O)c1c(NC(=O)NCc2c(-n3cccc3)sc(C(=O)OC(C)(C)C)c2C)sc2c1CCCC2 [Compound 50] | 1000 to 10000 |
| O=C(NCc1c(C(F)(F)F)sc2c1CCNC2)Nc1sc2c(c1C(=O)OCC(F)(F)F)CCCC2 [Compound 329] | < 100 |
| CCN1CCc2c(sc(-n3cccc3)c2CNC(=O)Nc2sc3c(c2C(=O)OC2CCCC2)CCCC3)C1 [Compound 222] | < 100 |

| SMILES | EC50 [nM] |
| --- | --- |
| CCOC(=O)c1c(NC(=O)NCc2c(-n3cccc3)sc3c2CCN(CC)C3)sc2c1CCC2 [Compound 57] | < 100 |
| C#CCN1CCc2c(sc(-n3cccc3)c2CNC(=O)Nc2sc3c(c2C(=O)OC(C)(C)C)CCCC3)C1 [Compound 325] | < 100 |
| CC(C)(C)OC(=O)c1c(NC(=O)NCc2c(-c3ccc(O)cc3)sc3c2CCNC3)sc2c1CCCC2 [Compound 256] | 100 to 1000 |
| CC(C)(C)OC(=O)c1c(NC(=O)NCc2c(-c3ccc(F)nc3)sc3c2CCNC3)sc2c1CCCC2 [Compound 309] | < 100 |
| CC(C)(C)OC(=O)c1c(NC(=O)NCc2c(C(F)(F)F)sc3c2CCNC3)sc2c1CCOC2O (stereo not shown) [Compound 320] | < 100 |
| CCOC(=O)c1c(NC(=O)NCc2c(C(F)(F)F)sc3c2CCN(C(=O)C(C)N)C3)sc2c1CCCC2 (stereo not shown) [Compound 315] | < 100 |
| CCOC(=O)c1c(NC(=O)NCc2c(-n3cccc3)sc3c2CCNC3)sc(C)c1C [Compound 70] | 100 to 1000 |
| CC1CCc2sc(NC(=O)NCc3c(Br)sc4c3CCNC4)c(C(=O)OC(C)(C)C)c2C1 (stereo not shown) [Compound 234] | < 100 |
| CCOC(=O)c1c(NC(=O)NCc2c(C(F)(F)F)sc3c2CCNC3)sc(C)c1C [Compound 132] | < 100 |
| CCOC(=O)c1c(NC(=O)NCc2c(-n3cccc3)sc3c2CCN(C)C3)sc2ccccc12 [Compound 66] | < 100 |
| O=C(NCc1c(-n2cccc2)sc2c1CCNC2)Nc1sc2c(c1C(=O)OC1CCCC1)CCCC2 [Compound 220] | < 100 |
| CC(C)(C)OC(=O)c1c(NC(=O)NCc2c(C(F)(F)F)sc3c2CCNC3)sc2c1CCOC2F (stereo not shown) [Compound 335] | < 100 |
| CC1CCc2c(sc(NC(=O)NCc3c(-n4cccc4)sc4c3CCN(C)C4)c2C(=O)OC(C)(C)C)C1 (stereo not shown) [Compound 210] | < 100 |
| CCOC(=O)c1c(NC(=O)C(=O)NCc2c(-n3cccc3)sc3c2CCNC3)sc2c1CCCC2 [Compound 86] | 1000 to 10000 |
| CCOC(=O)c1c(NC(=O)NCc2c(N3CCCC3)sc3c2CCN(C(=O)OC(C)(C)C)C3)sc2c1CCCC2 [Compound 73] | < 100 |
| COC(=O)c1c(NC(=O)NCc2c(Br)sc3c2CCN(C)C3)sc2c1CCCC2 [Compound 175] | < 100 |
| CCN1CCc2c(sc(-n3cccc3)c2CNC(=O)Nc2sc3c(c2C(=O)OC(C)(C)C)CC(C)CC3C)C1 (stereo not shown) [Compound 294] | < 100 |
| CCOC(=O)c1cc2ccccc2cc1NC(=O)NCc1c(-n2cccc2)sc2c1CCN(CC)C2 [Compound 45] | 1000 to 10000 |
| CN(C)CCN1CCc2c(sc(-c3cccc(Cl)c3)c2CNC(=O)Nc2sc3c(c2C(=O)OC(C)(C)C)CCCC3)C1 [Compound 358] | < 100 |
